Literature values in paper PMC9516332 (Frontiers in Oncology, 2022).
Where two headings read alike, the source gives them in different places.

What was measured:
Conditions in all cases: cited from earlier work
[1] = biological target: panel of 255 wild-type kinases (Homo sapiens, UniProt O75676)
[2] = biological target: panel of 255 wild-type kinases (Homo sapiens, UniProt O95819)
[3] = biological target: panel of 255 wild-type kinases (Homo sapiens, UniProt P08069)
[4] = biological target: panel of 255 wild-type kinases (Homo sapiens, UniProt P53779)
[5] = biological target: T1, panel of 255 wild-type kinases (Homo sapiens, UniProt Q12851)
T1 sequence (Q12851 1-820): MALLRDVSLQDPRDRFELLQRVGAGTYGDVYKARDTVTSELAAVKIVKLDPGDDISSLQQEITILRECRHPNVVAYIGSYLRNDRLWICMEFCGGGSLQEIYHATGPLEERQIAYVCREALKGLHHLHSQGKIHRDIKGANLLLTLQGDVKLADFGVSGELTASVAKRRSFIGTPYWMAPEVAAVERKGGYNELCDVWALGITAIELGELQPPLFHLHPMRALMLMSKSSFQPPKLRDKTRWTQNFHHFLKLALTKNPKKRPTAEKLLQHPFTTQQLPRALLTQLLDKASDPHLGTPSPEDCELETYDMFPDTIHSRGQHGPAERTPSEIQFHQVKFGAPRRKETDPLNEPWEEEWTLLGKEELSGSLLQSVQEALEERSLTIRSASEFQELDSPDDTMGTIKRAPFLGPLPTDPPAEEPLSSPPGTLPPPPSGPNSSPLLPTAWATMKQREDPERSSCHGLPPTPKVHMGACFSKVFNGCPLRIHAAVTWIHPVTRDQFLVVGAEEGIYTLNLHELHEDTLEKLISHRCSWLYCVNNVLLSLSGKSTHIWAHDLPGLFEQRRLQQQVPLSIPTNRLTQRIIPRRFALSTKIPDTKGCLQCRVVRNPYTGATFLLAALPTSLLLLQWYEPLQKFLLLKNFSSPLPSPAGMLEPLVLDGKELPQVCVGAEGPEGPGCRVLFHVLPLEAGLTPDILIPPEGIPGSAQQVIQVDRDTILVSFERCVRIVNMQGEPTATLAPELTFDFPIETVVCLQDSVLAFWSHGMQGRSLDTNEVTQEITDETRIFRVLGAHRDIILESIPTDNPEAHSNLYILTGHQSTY

[6] = biological target: panel of 255 wild-type kinases (Homo sapiens, UniProt Q15375)
[7] = biological target: T2, panel of 255 wild-type kinases (Homo sapiens, UniProt Q9BZL6)
T2 sequence (Q9BZL6 1-878): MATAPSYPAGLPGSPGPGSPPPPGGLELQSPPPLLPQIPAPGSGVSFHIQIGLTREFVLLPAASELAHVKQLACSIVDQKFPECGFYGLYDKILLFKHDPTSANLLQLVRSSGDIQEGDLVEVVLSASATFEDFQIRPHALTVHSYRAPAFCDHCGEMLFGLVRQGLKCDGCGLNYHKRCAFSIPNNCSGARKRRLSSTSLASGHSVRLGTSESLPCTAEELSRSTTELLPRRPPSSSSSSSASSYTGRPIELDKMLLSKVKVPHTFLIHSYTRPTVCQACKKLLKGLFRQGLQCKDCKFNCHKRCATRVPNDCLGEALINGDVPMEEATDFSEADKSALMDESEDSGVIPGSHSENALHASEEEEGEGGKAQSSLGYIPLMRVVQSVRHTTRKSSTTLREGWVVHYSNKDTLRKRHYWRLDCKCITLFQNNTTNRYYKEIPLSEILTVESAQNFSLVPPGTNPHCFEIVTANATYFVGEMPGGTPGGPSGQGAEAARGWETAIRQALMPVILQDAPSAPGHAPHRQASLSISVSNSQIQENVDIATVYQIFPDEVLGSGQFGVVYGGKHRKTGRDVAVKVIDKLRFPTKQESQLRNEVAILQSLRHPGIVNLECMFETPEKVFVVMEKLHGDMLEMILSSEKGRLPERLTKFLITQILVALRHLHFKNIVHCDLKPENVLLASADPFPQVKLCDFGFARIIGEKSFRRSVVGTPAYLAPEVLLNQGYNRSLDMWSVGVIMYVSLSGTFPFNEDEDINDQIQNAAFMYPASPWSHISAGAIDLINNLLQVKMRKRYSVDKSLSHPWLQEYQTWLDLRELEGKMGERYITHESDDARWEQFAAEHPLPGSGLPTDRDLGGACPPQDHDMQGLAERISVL

[8] = biological target: panel of 255 wild-type kinases (Homo sapiens, UniProt Q9Y243)
[9] = MSK2, 1 µmol/L single concentration, ref DOI: 10.1158/1535-7163.MCT-18-0877
[10] = kinase HGK, 1 µmol/L single concentration, ref DOI: 10.1158/1535-7163.MCT-18-0877
[11] = kinase IGF1R, 1 µmol/L single concentration, ref DOI: 10.1158/1535-7163.MCT-18-0877
[12] = kinase JNK3, 1 µmol/L single concentration, ref DOI: 10.1158/1535-7163.MCT-18-0877
[13] = kinase MAP4K2, 1 µmol/L single concentration, ref DOI: 10.1158/1535-7163.MCT-18-0877
[14] = kinase EPHA7, 1 µmol/L single concentration, ref DOI: 10.1158/1535-7163.MCT-18-0877
[15] = kinase PKD2, 1 µmol/L single concentration, ref DOI: 10.1158/1535-7163.MCT-18-0877
[16] = AKT3 kinase assay, 1 µmol/L single concentration, ref DOI: 10.1158/1535-7163.MCT-18-0877

| SMILES | %-inhibition, MSK2 [1, 9] [%] | %-inhibition at 1 µmol/L, HGK [2, 10] [%] | %-inhibition at 1 µmol/L, IGF1R [3, 11] [%] | %-inhibition at 1 µmol/L, JNK3 [4, 12] [%] | %-inhibition at 1 µmol/L, MAP4K2 [5, 13] [%] | %-inhibition at 1 µmol/L, EPHA7 [6, 14] [%] | %-inhibition at 1 µmol/L, PKD2 [7, 15] [%] | %-inhibition AKT3 [8, 16] [%] | %-inhibition, MSK2 [1] [%] | %-inhibition at 1 µmol/L, HGK [2] [%] | %-inhibition at 1 µmol/L, IGF1R [3] [%] | %-inhibition at 1 µmol/L, JNK3 [4] [%] | %-inhibition at 1 µmol/L, MAP4K2 [5] [%] | %-inhibition at 1 µmol/L, EPHA7 [6] [%] | %-inhibition at 1 µmol/L, PKD2 [7] [%] | %-inhibition AKT3 [8] [%] | %-inhibition, MSK2 ([1]; MSK2, 1 µmol/L single concentration, ref DOI: 10.1371/journal.pone.0092146) [%] | %-inhibition at 1 µmol/L, IGF1R ([3]; kinase IGF1R, 1 µmol/L single concentration, ref DOI: 10.1371/journal.pone.0092146) [%] | %-inhibition at 1 µmol/L, JNK3 ([4]; kinase JNK3, 1 µmol/L single concentration, ref DOI: 10.1371/journal.pone.0092146) [%] | %-inhibition AKT3 ([8]; AKT3 kinase assay, 1 µmol/L single concentration, ref DOI: 10.1371/journal.pone.0092146) [%] |
| --- | --- | --- | --- | --- | --- | --- | --- | --- | --- | --- | --- | --- | --- | --- | --- | --- | --- | --- | --- | --- |
| CC#CC(=O)N1CCC[C@H]1c1nc(-c2ccc(C(=O)Nc3ccccn3)cc2)c2c(N)nccn12 [acalabrutinib] | 1.53 | -1.42 | 0.466 | -0.893 | -11 | -3.54 | -10 | -5 |  |  |  |  |  |  |  |  |  |  |  |  |
| CCc1cc2c(cc1N1CCC(N3CCOCC3)CC1)C(C)(C)c1[nH]c3cc(C#N)ccc3c1C2=O [alectinib] | 1.22 | 20 | 10 | -0.533 | 7.56 | 1.58 | -1.05 | -0.889 |  |  |  |  |  |  |  |  |  |  |  |  |
| COc1cc(N2CCC(N3CCN(C)CC3)CC2)ccc1Nc1ncc(Cl)c(Nc2ccccc2P(C)(C)=O)n1 [brigatinib] |  |  |  |  |  |  |  |  | 10 | 18 | 99 | 52 | 77 | 21 | 86 | -0.864 |  |  |  |  |
| Cc1cc(Nc2ncc(Cl)c(Nc3ccccc3S(=O)(=O)C(C)C)n2)c(OC(C)C)cc1C1CCNCC1 [ceritinib] | 2.2 | 10 | 103 | 16 | 7.37 | 4.64 | 25 | -4 |  |  |  |  |  |  |  |  |  |  |  |  |
| O=C(c1ccc(F)c(F)c1Nc1ccc(I)cc1F)N1CC(O)([C@@H]2CCCCN2)C1 [cobimetinib] | -0.0695 | 2.27 | 6 | -0.412 | -5.57 | 1.75 | -11 | -3.43 |  |  |  |  |  |  |  |  |  |  |  |  |
| C[C@@H](Oc1cc(-c2cnn(C3CCNCC3)c2)cnc1N)c1c(Cl)ccc(F)c1Cl [crizotinib] |  |  |  |  |  |  |  |  |  |  |  |  |  |  |  |  | -1.8 | 80 | -1.87 | -1.83 |
